# Test results published in patent US20100119599A1 (ARCHER PHARMACEUTICALS, INC., priority 2006, published 2010).
# How the values were obtained:
# Aβ1-42 = assay: Measurement of Aβ1-42 in culture medium of 7W WT APP751 CHO cells by ELISA; assay type: cell-based, Chinese hamster; settings: for activity at 5 µM: Cricetulus griseus, Table 1, 5 μM test compound, CHO cells stably transfected with human APP751, culture medium, ELISA, control DMSO, 0 = no detectable amount, read-out: Aβ1-42 (% of control); for Aβ1-42 (% of control): CHO cells that overexpress APP751, zero = below the detection limit of the assay
# Aβ1-40 = assay: Measurement of Aβ1-40 in culture medium of 7W WT APP751 CHO cells by ELISA; assay type: cell-based, Chinese hamster; settings: for activity at 5 µM: Cricetulus griseus, Table 1, 5 μM test compound, CHO cells stably transfected with human APP751, culture medium, ELISA, control DMSO, 0 = no detectable amount; for Aβ1-40 (% of control): CHO cells that overexpress APP751, zero = below the detection limit of the assay
# 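Further: 5 µM test compound but RI-coded compounds at 10 µM for 24 hours.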
SMILES,activity at 5 µM (Aβ1-42),activity at 5 µM (Aβ1-40),Aβ1-42 (% of control) (Aβ1-42),Aβ1-40 (% of control) (Aβ1-40)
"CC1=C(C(=O)OC2CCCCC2)C(c2ccc(Cl)c(Cl)c2)C2=C(CCCC2=O)N1 (stereo not shown) [ST013269, cyclohexyl 4-(3,4-dichlorophenyl)-2-methyl-5-oxo-1,4,6,7,8-pentahydroquinoline-3-carboxylate]",1.35%,12.3%,,
"N#CC1=C(N)N(c2c(F)cccc2F)C2=C(C(=O)CCC2)C1c1ccsc1 (stereo not shown) [ST051960, 2-amino-1-(2,6-difluorophenyl)-5-oxo-4-(3-thienyl)-1,4,6,7,8-pentahydroquinoline-3-carbonitrile]",86.3%,48.8%,,
"CCCCCOC(=O)C1=C(C)NC2=C(C(=O)CCC2)C1c1cc(Br)c(O)c(OC)c1 (stereo not shown) [ST013170, pentyl 4-(3-bromo-4-hydroxy-5-methoxyphenyl)-2-methyl-5-oxo-1,4,6,7,8-pentahydroquinoline-3-carboxylate]",49.8%,62.8%,,
"COC(=O)C1=CN(C2CC2)C=C(C(=O)OC)C1c1ccc(Cl)cc1 [ST038738, methyl 4-(4-chlorophenyl)-1-cyclopropyl-5-(methoxycarbonyl)-1,4-dihydropyridine-3-carboxylate]",,,52.59 % of control,94.49 % of control
CC1=C(C(=O)Nc2ccccc2)C(c2cccs2)C(C#N)=C(SCC(=O)Nc2ccccc2C(C)C)N1 (stereo not shown) [RI_56],,,100 % of control,54.5 % of control
"CC1=C(C(=O)OC(C)C)C(c2cccc(Cl)c2Cl)C2=C(CC(c3ccccc3)CC2=O)N1 (stereo not shown) [ST013439, methylethyl 4-(2,3-dichlorophenyl)-2-methyl-5-oxo-7-phenyl-1,4,6,7,8-pentahydroquinoline-3-carboxylate]",80.3%,19.7%,,
CC1=C(C(=O)Nc2ccccc2)C(c2ccsc2)C(C#N)=C(SCC(=O)Nc2ccc(C)cc2)N1 (stereo not shown) [RI_49],,,37.7 % of control,40.9 % of control
"CCn1c2ccccc2c2cc(C3C(C(=O)OCC4CCCO4)=C(C)NC4=C3C(=O)CCC4)ccc21 (stereo not shown) [ST052207, oxolan-2-ylmethyl 4-(9-ethylcarbazol-3-yl)-2-methyl-5-oxo-1,4,6,7,8-pentahydroquinoline-3-carboxylate]",59.6%,52.3%,,
CCc1cccc(NC(=O)CSC2=C(C#N)C(c3cc(Br)cs3)C(C(=O)Nc3ccccc3)=C(C)N2)c1 (stereo not shown) [RI_80],,,54.3 % of control,64.37 % of control
N#CC1=C(N)NC(SCC(N)=O)=C(C#N)C1c1ccccc1F (stereo not shown) [RI_2],,,44.4 % of control,100.9 % of control
"CCOC(=O)C1=c2s/c(=C/c3ccccc3C(F)(F)F)c(=O)n2C(N)=C(C#N)C1c1ccccc1C(F)(F)F (stereo not shown) [ST025089, ethyl 5-amino-6-cyano-3-oxo-7-[2-(trifluoromethyl)phenyl]-2-{[2-(trifluoromethyl)phenyl]methylene}-4,7-dihydro-1,3-thiazolidino[3,2-a]pyridine-8-carboxylate]",,,33.69 % of control,48.71 % of control
"CCOCCOC(=O)C1=C(C)NC2=C(C(=O)CC(C)(C)C2)C1c1ccc(O)c(OC)c1 (stereo not shown) [ST013343, 2-ethoxyethyl 4-(4-hydroxy-3-methoxyphenyl)-2,7,7-trimethyl-5-oxo-1,4,6,7,8-pentahydroquinoline-3-carboxylate]",83%,61.1%,,
"COc1cc(OC)c(C2C(C(=O)OC3CCCC3)=C(C)NC3=C2C(=O)CC(c2cccs2)C3)cc1OC (stereo not shown) [ST051557, cyclopentyl 2-methyl-5-oxo-7-(2-thienyl)-4-(2,4,5-trimethoxyphenyl)-1,4,6,7,8-pentahydroquinoline-3-carboxylate]",93.1%,57.3%,,
"CCOC(=O)C1=C(C)NC(C)=C(C(=O)OCC)C1c1ccc(F)cc1 [ST211500, ethyl 5-(ethoxycarbonyl)-4-(4-fluorophenyl)-2,6-dimethyl-1,4-dihydropyridine-3-carboxylate]",,,19.53 % of control,20.67 % of control
